Experimental data: patent publication US12157746B2, “Tetrahydro-1H-pyrazino[2,1-a]isoindolylquinoline compounds for the treatment of autoimmune disease” (F. HOFFMANN-LA ROCHE AG, priority 2018, dated 2024)
pIC50: −log10 of the molar value.

Experiments:
human TLR7 = biological target: T1, human TLR7 (Homo sapiens, UniProt Q9NYK1); assay: HEK293-Blue-hTLR-7 cells assay; type: cell-based; details: HEK293-Blue-hTLR7 cells, R848 stimulation, 20 hrs, SEAP reporter; read-out: HEK/hTLR7 IC50
T1 sequence (Q9NYK1 27-1049): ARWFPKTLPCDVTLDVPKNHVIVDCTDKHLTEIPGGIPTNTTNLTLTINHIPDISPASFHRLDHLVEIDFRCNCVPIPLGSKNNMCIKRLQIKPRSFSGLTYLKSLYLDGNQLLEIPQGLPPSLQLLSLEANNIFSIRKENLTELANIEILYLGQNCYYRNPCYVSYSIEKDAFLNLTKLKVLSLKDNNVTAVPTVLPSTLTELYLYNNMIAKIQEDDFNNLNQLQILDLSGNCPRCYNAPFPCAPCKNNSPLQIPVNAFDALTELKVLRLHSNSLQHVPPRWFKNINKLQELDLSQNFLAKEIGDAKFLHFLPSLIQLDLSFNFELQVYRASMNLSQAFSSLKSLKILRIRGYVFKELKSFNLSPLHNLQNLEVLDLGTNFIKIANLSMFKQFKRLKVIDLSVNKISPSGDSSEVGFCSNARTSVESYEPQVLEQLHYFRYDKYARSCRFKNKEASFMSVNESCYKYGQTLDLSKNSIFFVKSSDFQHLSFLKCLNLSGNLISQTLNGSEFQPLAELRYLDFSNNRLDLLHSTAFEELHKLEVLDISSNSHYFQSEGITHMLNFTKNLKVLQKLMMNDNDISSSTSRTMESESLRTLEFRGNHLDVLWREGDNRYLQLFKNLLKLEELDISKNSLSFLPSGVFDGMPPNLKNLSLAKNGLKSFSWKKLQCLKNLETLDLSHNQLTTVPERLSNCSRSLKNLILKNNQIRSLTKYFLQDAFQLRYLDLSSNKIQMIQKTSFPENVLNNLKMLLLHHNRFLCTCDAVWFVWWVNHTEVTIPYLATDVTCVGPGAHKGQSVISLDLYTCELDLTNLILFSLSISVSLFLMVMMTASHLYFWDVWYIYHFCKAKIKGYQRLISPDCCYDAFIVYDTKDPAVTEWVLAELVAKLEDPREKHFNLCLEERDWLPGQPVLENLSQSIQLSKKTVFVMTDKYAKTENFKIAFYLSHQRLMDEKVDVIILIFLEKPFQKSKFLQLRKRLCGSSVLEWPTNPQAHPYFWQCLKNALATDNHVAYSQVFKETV
In short: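 HEK293-Blue-hTLR7 cells (NF-κB/AP-1-driven SEAP reporter) incubated with serially diluted compound (1% DMSO final) and R848 agonist for 20 h at 37 °C. Supernatant SEAP measured with QUANTI-Blue (2 h, 37 °C) by absorbance at 620-655 nm; antagonism seen as reduced reporter.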

[1] = Human microsomal stability assay; type: in vitro ADME; details: human liver microsomes 0.5 mg/mL, 37° C., pH 7.4, NADPH regenerating system, 0-30 minutes
In short: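 Human liver microsomes (0.5 mg/mL) with […] compound in 100 mM potassium phosphate, pH 7.4, 37° C; reaction started with NADPH regenerating system after 10 min preincubation. Parent remaining at 0–30 min quantified by LC-MS/MS; clearance binned low (<7.0), medium (7.0-16.2) or high (16.2-23.2) mL/min/kg.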

Row | Structure (SMILES) | pIC50 (human TLR7) | CL (h) [1] [mL/min/kg]
1 | C[C@@H]1CN(c2ccc(C#N)c3ncccc23)C[C@@H]2c3ccc(NCCN(C)C)cc3CN12 [Example 26, 5-[(4R,10bS)-8-[2-(dimethylamino)ethylamino]-4-methyl-3,4,6,10b-tetrahydro-1H-pyrazino[2,1-a]isoindol-2-yl]quinoline-8-carbonitrile] | 8.24 | 6.2
2 | C[C@@H]1CN(c2ccc(C#N)n3nccc23)C[C@@H]2c3ccc(N4CC[C@@H](N)C4)cc3CN12 [Example 96, 4-[(4R,10bS)-8-[(3R)-3-aminopyrrolidin-1-yl]-4-methyl-3,4,6,10b-tetrahydro-1H-pyrazino[2,1-a]isoindol-2-yl]pyrazolo[1,5-a]pyridine-7-carbonitrile] | 7.49 | 6.2
3 | C[C@@H]1CN(c2ccc(C#N)c3ncccc23)C[C@@H]2c3ccc(N4C[C@@H](N)[C@H](F)C4)cc3CN12 [Example 48, 5-[(4R,10bS)-8-[(3R,4R)-3-amino-4-fluoro-pyrrolidin-1-yl]-4-methyl-3,4,6,10b-tetrahydro-1H-pyrazino[2,1-a]isoindol-2-yl]quinoline-8-carbonitrile] | 8.24 | 8.9
4 | C[C@@H]1CN(c2ccc(C#N)c3ncccc23)CC2c3ccc(N4C[C@H](N)[C@@H](O)C4)cc3CN21 (relative stereo) [Example 21, 5-[(4R,10bS)-8-[trans-3-amino-4-hydroxy-pyrrolidin-1-yl]-4-methyl-3,4,6,10b-tetrahydro-1H-pyrazino[2,1-a]isoindol-2-yl]quinoline-8-carbonitrile] | 8.24 | 6.2
5 | C[C@@H]1CN(c2ccc(C#N)c3ncccc23)C[C@@H]2c3ccc(NC4CNC4)cc3CN12 [Example 28, 5-[(4R,10S)-8-(azetidin-3-ylamino)-4-methyl-3,4,6,10b-tetrahydro-1H-pyrazino[2,1-a]isoindol-2-yl]quinoline-8-carbonitrile] | 7.81 | 8.7
6 | N#Cc1ccc(N2CCN3Cc4cc(N5CCNCC5)ccc4C3C2)c2scnc12 (stereo not shown) [Example 4, 7-(8-piperazin-1-yl-3,4,6,10b-tetrahydro-1H-pyrazino[2,1-a]isoindol-2-yl)-1,3-benzothiazole-4-carbonitrile] | 7.74 | 6.2
7 | COC1CN(c2ccc3c(c2)CN2C3CN(c3ccc(C#N)c4ncccc34)C[C@H]2C)CC1N (single isomer, unassigned) [Example 16B] | 8.35 | 8.1

Second part, the compound after the results:

Row | pIC50 (human TLR7) | CL (h) [1] [mL/min/kg] | Structure (SMILES)
8 | 8.48 | 6.2 | C[C@@H]1CN(c2ccc(C#N)c3ncccc23)C[C@@H]2c3ccc(N4CC5(CNC5)C4)cc3CN12 [Example 36, 5-[(4R,10bS)-8-(2,6-diazaspiro[3.3]heptan-2-yl)-4-methyl-3,4,6,10b-tetrahydro-1H-pyrazino[2,1-a]isoindol-2-yl]quinoline-8-carbonitrile]
9 | 8.35 | 6.2 | C[C@@H]1CN(c2ccc(C#N)c3ncccc23)C[C@@H]2c3ccc(N4C[C@@H](N)[C@](C)(O)C4)cc3CN12 [Example 45, 5-[(4R,10bS)-4-methyl-8-[trans-(3R,4R)-4-amino-3-hydroxy-3-methyl-pyrrolidin-1-yl]-3,4,6,10b-tetrahydro-1H-pyrazino[2,1-a]isoindol-2-yl]quinoline-8-carbonitrile]
10 | 8.40 | 8.9 | C[C@@H]1CN(c2ccc(C#N)c3ncccc23)C[C@@H]2c3ccc(N4CCOCC(N)C4)cc3CN12 (stereo partly drawn) [Example 54, 5-[(4R,10bS)-8-(6-amino-1,4-oxazepan-4-yl)-4-methyl-3,4,6,10b-tetrahydro-1H-pyrazino[2,1-a]isoindol-2-yl]quinoline-8-carbonitrile]
11 | > 8.49 | 6.2 | C[C@@H]1CN(c2ccc(C#N)c3ncccc23)C[C@@H]2c3ccc(N4CCN[C@H](CO)C4)cc3CN12 [Example 12, 5-[(4R,10bS)-8-[(3S)-3-(hydroxymethyl)piperazin-1-yl]-4-methyl-3,4,6,10b-tetrahydro-1H-pyrazino[2,1-a]isoindol-2-yl]quinoline-8-carbonitrile]
12 | > 8.49 | 6.5 | C[C@@H]1CN(c2ccc(C#N)c3ncccc23)C[C@@H]2c3ccc(N4CC5(CCN5)C4)cc3CN12 [Example 37, 5-[(4R,10bS)-8-(1,6-diazaspiro[3.3]heptan-6-yl)-4-methyl-3,4,6,10b-tetrahydro-1H-pyrazino[2,1-a]isoindol-2-yl]quinoline-8-carbonitrile]
13 | 8.35 | 7.5 | C[C@@H]1CN(c2ccc(C#N)c3ncccc23)C[C@@H]2c3ccc(N4CCOC[C@H](N)C4)cc3CN12 [Example 54A, 5-[(4R,10bS)-8-[(6R)-6-amino-1,4-oxazepan-4-yl]-4-methyl-3,4,6,10b-tetrahydro-1H-pyrazino[2,1-a]isoindol-2-yl]quinoline-8-carbonitrile]
14 | 8.48 | 6.2 | C[C@@H]1CN(c2ccc(C#N)c3ncccc23)C[C@@H]2c3ccc(N4C[C@H](N)[C@@](C)(O)C4)cc3CN12 [Example 45B, 5-[(4R,10bS)-8-[(3S,4S)-4-amino-3-hydroxy-3-methyl-pyrrolidin-1-yl]-4-methyl-3,4,6,10b-tetrahydro-1H-pyrazino[2,1-a]isoindol-2-yl]quinoline-8-carbonitrile]
